Data from patent US10183021B2, “sGC stimulators” (Ironwood Pharmaceuticals, Inc., priority 2013, dated 2019).
Read-outs that look alike come from different tables or passages of the source.

Biological target: soluble guanylate cyclase (sGC) (Homo sapiens (Human), UniProt Q02108+Q02153)
Assay: sGC-HEK-cGMP assay with SNP incubation, LC/MS detection (Example 2A)
Type: cell-based
Settings: HEK293 cells, 10 μM SNP, LC/MS detection; for Emax: 100% = BAY 41-2272 at 10 μM, read-out: HEK assay Emax - unconstrained (%)
Procedure: Human embryonic kidney cells (HEK293), endogenously expressing soluble guanylate cyclase (sGC), were used to evaluate the activity of test compounds. Compounds stimulating the sGC receptor should cause an increase in the intracellular concentration of cGMP. HEK 293 cells were seeded in Dulbecco's Modification of Eagle's Medium supplemented with fetal bovine serum (10% final) and L-glutamine (2 mM final) in a 200 L volume at a density of 1×10^5 cells/well in a poly-D-lysine coated 96 well flat bottom plate and grown overnight at 37° C. Medium was aspirated and cells were washed with 1× Hank's Buffered Saline Salt Solution (200 μL). Cells were then incubated for 15 minutes at 37° C. with 200 μL of a 0.5 mM 3-isobutyl-1-methylxanthine (IBMX) solution. Test article and sodium nitroprusside solutions (x μM concentration for test article solution and 10 μM concentration for SNP solution; wherein x is one of the following concentrations: 30 μM, 10 μM, 3 μM, 1 μM, 0.3 μM, 0.1 μM, 0.03 μM, 0.01 μM, 0.003 μM, 0.001 μM, 0.0003 μM or 0.0001 μM) were then added to the assay mixture (2 μL each) and the resulting mixture incubated at 37° C. for 10 minutes. After the 10 minute incubation, the assay mixture was aspirated and 0.1M HCl (200 μL) was added to the cells. The plate was incubated at 4° C. for 30 minutes in the 0.1M HCl to stop the reaction and lyse the cells. The plates were then centrifuged at 1,200 g for 5 minutes at room temperature. Supernatants were collected and transferred to a new flat bottom 96 well plate for analysis by HPLC-MS. Vehicle controls were carried out using DMSO (1%) solutions. A known sGC stimulator, BAY 41-2272, was used as the positive control. Samples were diluted with an equal volume of 1 M Ammonium Acetate (pH 7) to neutralize samples for better chromatography. A 2× cGMP standard solution was prepared in 0.1 M HCl and then diluted with an equal volume of 1 M Ammonium Acetate, with the following final concentrations in nM: 1024, 512, 256, 128, 64, 32, 16, 8, 4, 2, 1. cGMP concentrations in the test plates were determined from each sample using the LC/MS conditions shown in Table 2 below and the calculated cGMP standard curve. EC50 values were calculated from concentration-response curves generated with GraphPad Prism Software. Data were normalized to a high control using the following equation: 100*(Sample−Low Control)/(High Control−Low Control), where the low control is the average of 6 samples treated with 1% DMSO, and the high control is the average of 8-12 samples treated with 10 uM BAY 41-2272. Data were fit using a non-linear regression, sigmoidal dose response, 3 parameter fits.

[1] = top of curve not fitted to 100%, read-out: HEK assay EC50 - unconstrained

soluble guanylate cyclase (sGC), sequence (Q02153 whole entry): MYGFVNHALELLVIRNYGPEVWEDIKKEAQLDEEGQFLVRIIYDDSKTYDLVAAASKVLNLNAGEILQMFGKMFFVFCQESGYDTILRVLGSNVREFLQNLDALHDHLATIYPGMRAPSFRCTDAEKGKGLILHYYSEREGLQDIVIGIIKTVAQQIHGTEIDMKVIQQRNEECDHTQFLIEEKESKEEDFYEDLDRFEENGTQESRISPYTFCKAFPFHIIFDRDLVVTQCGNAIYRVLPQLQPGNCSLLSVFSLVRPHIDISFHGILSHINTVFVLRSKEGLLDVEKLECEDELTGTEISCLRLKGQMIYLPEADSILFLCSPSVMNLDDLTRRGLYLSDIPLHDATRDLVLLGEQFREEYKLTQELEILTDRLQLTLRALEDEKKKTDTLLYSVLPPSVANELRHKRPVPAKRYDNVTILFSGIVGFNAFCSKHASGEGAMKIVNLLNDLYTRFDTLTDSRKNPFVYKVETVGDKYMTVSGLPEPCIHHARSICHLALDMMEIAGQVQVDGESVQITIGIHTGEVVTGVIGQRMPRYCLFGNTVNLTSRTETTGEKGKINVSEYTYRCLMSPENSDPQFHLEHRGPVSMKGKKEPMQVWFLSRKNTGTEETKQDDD
soluble guanylate cyclase (sGC), sequence (Q02108 whole entry): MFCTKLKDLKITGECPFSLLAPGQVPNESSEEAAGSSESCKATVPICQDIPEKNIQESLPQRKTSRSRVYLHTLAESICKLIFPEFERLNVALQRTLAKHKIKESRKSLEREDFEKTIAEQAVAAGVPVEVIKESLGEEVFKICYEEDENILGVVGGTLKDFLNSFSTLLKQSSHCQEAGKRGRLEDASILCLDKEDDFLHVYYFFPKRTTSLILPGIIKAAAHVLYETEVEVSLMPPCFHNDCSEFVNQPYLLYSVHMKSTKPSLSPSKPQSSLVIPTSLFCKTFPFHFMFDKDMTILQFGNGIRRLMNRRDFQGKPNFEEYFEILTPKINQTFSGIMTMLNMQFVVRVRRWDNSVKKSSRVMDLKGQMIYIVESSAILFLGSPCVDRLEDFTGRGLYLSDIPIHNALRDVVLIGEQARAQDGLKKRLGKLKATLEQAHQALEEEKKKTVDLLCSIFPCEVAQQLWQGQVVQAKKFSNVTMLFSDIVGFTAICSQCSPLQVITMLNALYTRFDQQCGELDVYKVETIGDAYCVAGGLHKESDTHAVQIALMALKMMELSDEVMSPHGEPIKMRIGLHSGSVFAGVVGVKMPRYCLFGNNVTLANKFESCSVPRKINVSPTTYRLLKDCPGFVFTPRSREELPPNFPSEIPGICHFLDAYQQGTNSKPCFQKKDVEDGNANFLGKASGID

Compound	Emax	EC50 [1]	EC50 (top of curve fitted to 100%, read-out: HEK assay EC50 - constrained)
CN(CCC(=O)O)c1nc(-c2cc(-c3ccon3)n(Cc3ccccc3F)n2)ncc1F [Compound I-169]	60 to 80%	100 to 500 nM	–
CC(CN(C)c1nc(-c2cc(-c3ccon3)n(Cc3ccccc3F)n2)ncc1F)C(=O)O (centres unmarked) [Compound I-170]	60 to 80%	100 to 500 nM	–
CC(C)[C@H](CNc1nc(-c2cc(-c3ccon3)n(Cc3ccccc3F)n2)ncc1F)C(=O)O [Compound I-171]	60 to 80%	1 to 100 nM	–
COc1nc(-c2cc(-c3ccon3)n(Cc3ccccc3F)n2)nc(N2CCOCC2)c1F [Compound I-172]	–	–	> 10000 nM
CC(C)[C@@H](CNc1nc(-c2cc(-c3ccon3)n(Cc3ccccc3F)n2)ncc1F)C(=O)O [Compound I-173]	60 to 80%	100 to 500 nM	–
O=C(O)CCNc1nc(-c2cc(-c3ccon3)n(Cc3ccccc3F)n2)ncc1F [Compound I-174]	60 to 80%	500 to 1000 nM	–
CS(=O)(=O)C1CCN(c2nc(-c3cc(-c4ccon4)n(Cc4ccccc4F)n3)ncc2F)CC1 [Compound I-175]	100 to 120%	1 to 100 nM	–
CN(CC(=O)O)c1nc(-c2cc(-c3ccon3)n(Cc3ccccc3F)n2)ncc1F [Compound I-176]	40 to 60%	1000 to 5000 nM	–
CC(=O)NS(=O)(=O)N1CCN(c2nc(-c3cc(-c4ccon4)n(Cc4ccccc4F)n3)ncc2F)CC1 [Compound I-177]	60 to 80%	100 to 500 nM	–
CS(=O)(=O)CCC(Nc1nc(-c2cc(-c3ccon3)n(Cc3ccccc3F)n2)ncc1F)C(=O)O (centres unmarked) [Compound I-178]	40 to 60%	5000 to 10000 nM	–
O=C(O)[C@H]1CC[C@@H](Nc2nc(-c3cc(-c4ccon4)n(Cc4ccccc4F)n3)ncc2F)C1 [Compound I-179]	80 to 100%	100 to 500 nM	–
O=C(O)C(CC(F)(F)F)Nc1nc(-c2cc(-c3ccon3)n(Cc3ccccc3F)n2)ncc1F (centres unmarked) [Compound I-180]	80 to 100%	1000 to 5000 nM	–
CC(C)[C@@H](CC(=O)O)Nc1nc(-c2cc(-c3ccon3)n(Cc3ccccc3F)n2)ncc1F [Compound I-181]	100 to 120%	500 to 1000 nM	–
CC(C)[C@H](CC(=O)O)Nc1nc(-c2cc(-c3ccon3)n(Cc3ccccc3F)n2)ncc1F [Compound I-182]	80 to 100%	1 to 100 nM	–
CC(C)(C)OC(=O)N1CCCN1c1nc(-c2cc(-c3ccon3)n(Cc3ccccc3F)n2)ncc1F [Compound I-183]	60 to 80%	100 to 500 nM	–
CC(C)(C)OC(=O)N1CCN(c2nc(-c3cc(-c4ccon4)n(Cc4ccccc4F)n3)ncc2F)C(CO)C1 (centres unmarked) [Compound I-184]	80 to 100%	500 to 1000 nM	–
CCC1(C(=O)O)CCN(c2nc(-c3cc(-c4ccon4)n(Cc4ccccc4F)n3)ncc2F)CC1 [Compound I-189]	60 to 80%	100 to 500 nM	–

Compound	Emax	EC50 [1]	EC50 (top of curve fitted to 100%, read-out: HEK assay EC50 - constrained)
CC1CN(c2nc(-c3cc(-c4ccon4)n(Cc4ccccc4F)n3)ncc2F)CCC1C(=O)O (centres unmarked) [Compound I-190]	60 to 80%	1000 to 5000 nM	–
Fc1ccccc1Cn1nc(-c2ncc(F)c(N3CCCN3)n2)cc1-c1ccon1 [Compound I-193]	60 to 80%	1000 to 5000 nM	–
O=C(O)C1(CNc2nc(-c3cc(-c4ccon4)n(Cc4ccccc4F)n3)ncc2F)CCOCC1 [Compound I-194]	80 to 100%	100 to 500 nM	–
CC(C)C(CC(=O)O)N(C)c1nc(-c2cc(-c3ccon3)n(Cc3ccccc3F)n2)ncc1F (centres unmarked) [Compound I-195]	60 to 80%	1 to 100 nM	–
CNc1nc(-c2cc(-c3ccon3)n(Cc3ccccc3F)n2)ncc1F [Compound I-196]	80 to 100%	–	–
O=C(O)COC1CCN(c2nc(-c3cc(-c4ccon4)n(Cc4ccccc4F)n3)ncc2F)CC1 [Compound I-197]	80 to 100%	1000 to 5000 nM	–
CSCCC(Nc1nc(-c2cc(-c3ccon3)n(Cc3ccccc3F)n2)ncc1F)C(=O)O (centres unmarked) [Compound I-199]	60 to 80%	5000 to 10000 nM	–
CCOC(=O)CN(CC1CC1)c1nc(-c2cc(-c3ccon3)n(Cc3ccccc3F)n2)ncc1F [Compound I-201]	100 to 120%	100 to 500 nM	–
CC(C)[C@@H](CC(=O)O)N(C)c1nc(-c2cc(-c3ccon3)n(Cc3ccccc3F)n2)ncc1F [Compound I-202]	80 to 100%	100 to 500 nM	–
O=C(O)CN(CC1CC1)c1nc(-c2cc(-c3ccon3)n(Cc3ccccc3F)n2)ncc1F [Compound I-203]	40 to 60%	100 to 500 nM	–
CCOC(=O)CN(CC(C)C)c1nc(-c2cc(-c3ccon3)n(Cc3ccccc3F)n2)ncc1F [Compound I-205]	60 to 80%	500 to 1000 nM	–
C[C@@H](C(=O)O)N(C)c1nc(-c2cc(-c3ccon3)n(Cc3ccccc3F)n2)ncc1F [Compound I-207]	100 to 120%	500 to 1000 nM	–
O=C(O)C12CCCC1CN(c1nc(-c3cc(-c4ccon4)n(Cc4ccccc4F)n3)ncc1F)C2 (centres unmarked) [Compound I-208]	80 to 100%	1 to 100 nM	–
CC(C)CN(CC(=O)O)c1nc(-c2cc(-c3ccon3)n(Cc3ccccc3F)n2)ncc1F [Compound I-209]	80 to 100%	500 to 1000 nM	–
O=C(O)C1(CNc2nc(-c3cc(-c4ccon4)n(Cc4ccccc4F)n3)ncc2F)CC1 [Compound I-210]	100 to 120%	1 to 100 nM	–
OCC1CNCCN1c1nc(-c2cc(-c3ccon3)n(Cc3ccccc3F)n2)ncc1F (centres unmarked) [Compound I-211]	> 120%	1000 to 5000 nM	–
O=C(N1CCN(c2nc(-c3cc(-c4ccon4)n(Cc4ccccc4F)n3)ncc2F)C(CO)C1)C(F)(F)F (centres unmarked) [Compound I-212]	> 120%	500 to 1000 nM	–

Now from value to compound:

Emax	EC50 [1]	EC50 (top of curve fitted to 100%, read-out: HEK assay EC50 - constrained)	Compound
40 to 60%	1000 to 5000 nM	–	CN(CCCC(=O)O)c1nc(-c2cc(-c3ccon3)n(Cc3ccccc3F)n2)ncc1F [Compound I-215]
40 to 60%	100 to 500 nM	–	O=C(O)CN1CCCN1c1nc(-c2cc(-c3ccon3)n(Cc3ccccc3F)n2)ncc1F [Compound I-216]
60 to 80%	100 to 500 nM	–	CCC(CC)(CNc1nc(-c2cc(-c3ccon3)n(Cc3ccccc3F)n2)ncc1F)C(=O)O [Compound I-217]
40 to 60%	1000 to 5000 nM	–	CONC(=O)CN(C)c1nc(-c2cc(-c3ccon3)n(Cc3ccccc3F)n2)ncc1F [Compound I-218]
40 to 60%	1000 to 5000 nM	–	Cc1noc(CN(C)c2nc(-c3cc(-c4ccon4)n(Cc4ccccc4F)n3)ncc2F)n1 [Compound I-223]
60 to 80%	1000 to 5000 nM	–	C[C@H](C[C@H](Nc1nc(-c2cc(-c3ccon3)n(Cc3ccccc3F)n2)ncc1F)C(=O)O)C(F)(F)F [Compound I-224]
80 to 100%	1 to 100 nM	–	C[C@H](C[C@@H](Nc1nc(-c2cc(-c3ccon3)n(Cc3ccccc3F)n2)ncc1F)C(=O)O)C(F)(F)F [Compound I-225]
60 to 80%	1 to 100 nM	–	CC(C)(F)C(Nc1nc(-c2cc(-c3ccon3)n(Cc3ccccc3F)n2)ncc1F)C(=O)O (centres unmarked) [Compound I-226]
20 to 40%	100 to 500 nM	–	O=C(O)[C@@H](Nc1nc(-c2cc(-c3ccon3)n(Cc3ccccc3F)n2)ncc1F)C1CC1 [Compound I-227]
0 to 10%	> 10000 nM	–	CN(CC1(C(=O)O)CCCC1)c1nc(-c2cc(-c3ccon3)n(Cc3ccccc3F)n2)ncc1F [Compound I-228]
20 to 40%	> 10000 nM	–	O=C(O)CC1CCCN(c2nc(-c3cc(-c4ccon4)n(Cc4ccccc4F)n3)ncc2F)C1 (centres unmarked) [Compound I-229]
40 to 60%	> 10000 nM	–	COC(=O)CC1CCN(c2nc(-c3cc(-c4ccon4)n(Cc4ccccc4F)n3)ncc2F)CC1 [Compound I-231]
80 to 100%	1000 to 5000 nM	–	COCCC(Nc1nc(-c2cc(-c3ccon3)n(Cc3ccccc3F)n2)ncc1F)C(=O)O (centres unmarked) [Compound I-232]
60 to 80%	100 to 500 nM	–	O=C(O)C(Nc1nc(-c2cc(-c3ccon3)n(Cc3ccccc3F)n2)ncc1F)C1CCCCC1 (centres unmarked) [Compound I-233]
80 to 100%	100 to 500 nM	–	O=C(O)CCC1CCN(c2nc(-c3cc(-c4ccon4)n(Cc4ccccc4F)n3)ncc2F)CC1 [Compound I-234]
100 to 120%	1 to 100 nM	–	CC(C)[C@@H](C(=O)O)N(C)c1nc(-c2cc(-c3ccon3)n(Cc3cccc(F)c3F)n2)ncc1F [Compound I-235]
